The source of these data is patent EP4653451A1, “POLYPEPTIDE COMPOUND AND USE THEREOF” (Chengdu New Radiomedicine Technology Co., Ltd., priority 2023, dated 2024).

Where a name gives a salt, the structure may show the parent alone. Read-outs that look alike come from different tables or passages of the source. Numbered stars: 1 amine (or outer) side, 2 acyl side, 3 side chain; on linkers, the order of the positions; unused ones are H or OH. Bridge positions count the residues as written; N and C are the ends. Square brackets hold non-standard residues; d marks the D form. Peptide text beside a SMILES is read from it. * marks the point of attachment. TBMB(SCH2CH2NH-DOTA) = O=C(O)CN1CCN(CC(=O)O)CCN(CC(=O)NCCSCc2cc(C[*:1])cc(C[*:2])c2)CCN(CC(=O)O)CC1; X4 = CC(=O)NC[C@H](CSCc1cccc(C[*:1])c1)N[*:2]; 1Nal = N[C@@H](Cc1cccc2ccccc12)C(=O)O; d1Nal = N[C@H](Cc1cccc2ccccc12)C(=O)O; mXylylene = c1cc(C[*:1])cc(C[*:2])c1; Cha = N[C@@H](CC1CCCCC1)C(=O)O; d(β3hC) = N[C@H](CS)CC(=O)O; β3hC = N[C@@H](CS)CC(=O)O; Hexanoyl = CCCCCC(=O)*; NHcPent = C1CCC(N*)C1; NHBn = c1ccc(CN*)cc1; NHPentyl = CCCCCN*

The target of test [1] is T1, human recombinant FAP protein (Homo sapiens, UniProt Q12884).
T1 construct: purchased Acrobiosystems FAP-H82Q6
T1 sequence (Q12884 1-760): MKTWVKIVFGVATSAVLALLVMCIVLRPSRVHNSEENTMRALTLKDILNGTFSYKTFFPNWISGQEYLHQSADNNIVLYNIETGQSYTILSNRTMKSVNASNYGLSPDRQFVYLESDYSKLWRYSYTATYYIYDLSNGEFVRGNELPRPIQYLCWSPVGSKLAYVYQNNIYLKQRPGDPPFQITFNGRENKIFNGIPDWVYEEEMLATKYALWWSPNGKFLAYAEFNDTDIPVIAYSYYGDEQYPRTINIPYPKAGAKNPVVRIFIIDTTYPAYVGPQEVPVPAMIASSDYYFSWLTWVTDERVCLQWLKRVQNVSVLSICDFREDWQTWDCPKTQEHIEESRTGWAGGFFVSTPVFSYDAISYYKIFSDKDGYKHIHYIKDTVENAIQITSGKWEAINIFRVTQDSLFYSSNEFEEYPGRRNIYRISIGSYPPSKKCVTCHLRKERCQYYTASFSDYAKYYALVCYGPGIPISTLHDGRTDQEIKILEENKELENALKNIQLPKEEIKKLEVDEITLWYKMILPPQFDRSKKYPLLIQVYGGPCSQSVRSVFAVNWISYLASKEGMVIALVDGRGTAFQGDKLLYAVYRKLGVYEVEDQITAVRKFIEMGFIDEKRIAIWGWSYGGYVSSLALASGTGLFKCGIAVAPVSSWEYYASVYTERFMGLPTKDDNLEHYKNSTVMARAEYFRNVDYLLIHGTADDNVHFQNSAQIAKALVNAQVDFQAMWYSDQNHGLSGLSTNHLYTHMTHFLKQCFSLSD
In words: Inhibitory activity against FAP protease activity (Z-Gly-Pro-AMC fluorescence). In kind it is biochemical. The method, then: The human recombinant FAP protein (Acrobiosystems, FAP-H82Q6) was diluted to a 125 pM FAP working solution with an assay buffer (50 mM Tris-HCl, 1 M NaCl, 1 mg/mL BSA, pH 7.5), and the FAP substrate (Z-Gly-Pro-AMC (LEONBIO, 68542-93-8)) was diluted to a 150 µM substrate working solution with the assay buffer. 40 µl of FAP working solution and 20 µl of compounds at different concentrations (4-fold dilution) were taken, then 40 µl of substrate working solution was added, and the mixture was uniformly mixed on a shaker at room temperature for 1 min. The uniformly mixed mixture was reacted at room temperature in the dark for 90 min. The fluorescence value Ex = 380 nm/Em = 460 nm was read by using a microplate reader. The original data was saved, and the IC50 value of the compound was obtained by using the original data or the Inhibition% via calculation and analyzing the data with Graphpad PRISM.

Test [2] deals with T2, human recombinant DPP4 protein (Homo sapiens, UniProt P27487).
T2 construct: purchased Acrobiosystems DP4-H5211
T2 sequence (P27487 whole entry): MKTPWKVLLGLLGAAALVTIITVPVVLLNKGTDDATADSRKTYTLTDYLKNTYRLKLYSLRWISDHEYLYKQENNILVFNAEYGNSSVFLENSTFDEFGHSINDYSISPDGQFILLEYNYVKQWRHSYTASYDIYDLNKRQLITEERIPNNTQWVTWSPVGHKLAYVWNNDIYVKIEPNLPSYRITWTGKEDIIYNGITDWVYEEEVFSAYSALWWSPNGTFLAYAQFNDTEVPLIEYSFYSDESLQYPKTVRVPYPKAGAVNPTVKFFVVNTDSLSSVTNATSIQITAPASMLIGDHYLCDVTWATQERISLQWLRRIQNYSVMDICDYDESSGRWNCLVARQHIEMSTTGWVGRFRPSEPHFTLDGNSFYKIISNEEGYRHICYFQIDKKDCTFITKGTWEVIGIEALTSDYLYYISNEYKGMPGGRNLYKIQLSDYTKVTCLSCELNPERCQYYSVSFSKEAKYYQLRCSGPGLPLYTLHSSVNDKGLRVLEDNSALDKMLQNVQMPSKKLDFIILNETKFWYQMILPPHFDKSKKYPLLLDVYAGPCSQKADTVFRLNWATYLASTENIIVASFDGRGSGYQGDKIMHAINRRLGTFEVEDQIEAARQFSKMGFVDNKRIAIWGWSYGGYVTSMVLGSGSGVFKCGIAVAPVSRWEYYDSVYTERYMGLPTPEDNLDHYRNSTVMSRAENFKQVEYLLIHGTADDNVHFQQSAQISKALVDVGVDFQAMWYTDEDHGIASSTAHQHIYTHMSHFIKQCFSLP
In words: Inhibitory activity against DPP4 protease activity (H-Gly-Pro-AMC fluorescence). The test is classed as biochemical. Conditions: 125 pM DPP4 working solution, 90 min at room temperature. The method, then: The human recombinant DPP4 protein (Acrobiosystems, DP4-H5211) was formulated into a 125 pM working solution with an assay buffer (20 mM Tris-HCl, 100 mM NaCl), and the DPP4 substrate (H-Gly-Pro-AMC.HBr (LEONBIO, 115035-46-6)) was diluted to a 250 µM DPP4 substrate working solution with the assay buffer. 40 µl of DPP4 working solution and 20 µl of compounds at different concentrations (4-fold dilution) were taken, then 40 µl of DPP4 substrate working solution was added, and the mixture was uniformly mixed on a shaker at room temperature for 1 min. The uniformly mixed mixture was reacted at room temperature in the dark for 90 min. Reading was made by microplate reader at excitation and emission wavelengths of 380 nm and 460 nm. The original data was saved, and the IC50 value of the compound was obtained by analyzing the data with Graphpad PRISM.

Setting [3] is: 125 pM FAP working solution, 90 min at room temperature, read-out: FAP IC50.

For the compound `CCCCCC(=O)N[C@H]1CSCc2cccc(c2)CSC[C@@H](CC(=O)N[C@@H](CC(=O)O)C(N)=O)NC(=O)[C@H](Cc2ccccc2)NC(=O)[C@H](CCC(N)=O)NC(=O)[C@H]([C@@H](C)O)NC(=O)[C@@H]2CCCN2C(=O)[C@@H]2CCCN2C1=O` [Compound 1, Hex-Cys-Pro-Pro-Thr-Gln-Phe-beta-HomoCys-Asp-NH2 (Cys bridge DBMB) trifluoroacetate] (Hexanoyl-CPPTQF[β3hC]D-NH2; linker 1-7 via mXylylene), the IC50 (commonly the concentration that gives 50% inhibition) was 2.91 nM in test [1] and over 10000 nM in test [2].
In the case of `CCCCCC(=O)N[C@H]1CSCc2cccc(c2)CSC[C@@H](CC(=O)O)NC(=O)[C@H](Cc2ccccc2)NC(=O)[C@H](CCC(N)=O)NC(=O)[C@H]([C@@H](C)O)NC(=O)[C@@H]2CCCN2C(=O)[C@@H]2CCCN2C1=O` [Compound 2, Hex-Cys-Pro-Pro-Thr-Gln-Phe-beta-HomoCys-OH (Cys bridge DBMB) trifluoroacetate], the concentration for half-maximal inhibition (IC50) in test [1] is 4.24 nM; in test [2], over 10000 nM.
For the compound `CCCCCC(=O)N[C@H]1CSCc2cccc(c2)CSC[C@@H](C(=O)O)NC(=O)[C@H](CC2CCCCC2)NC(=O)[C@H](CCC(N)=O)NC(=O)[C@H]([C@@H](C)O)NC(=O)[C@@H]2CCCN2C(=O)[C@@H]2CCCN2C1=O` [Compound 3, Hex-Cys-Pro-Pro-Thr-Gln-Cha-Cys-OH (Cys bridge DBMB) trifluoroacetate] (Hexanoyl-CPPTQ[Cha]C-OH; linker 1-7 via mXylylene), the values for the half-maximal inhibitory concentration (IC50) in test [1] and in test [2] were 25.1 nM and over 10000 nM, respectively.
Turning to `CCCCCC(=O)N[C@H]1CSCc2cccc(c2)CSC[C@@H](C(=O)O)NC(=O)[C@H](Cc2ccccc2)NC(=O)[C@H](CCC(N)=O)NC(=O)[C@H]([C@@H](C)O)NC(=O)[C@@H]2CCCN2C(=O)[C@@H]2CCCN2C1=O` [Compound 3BP-4186, reference compound], the IC50 in test [1] was 98.8 nM; in test [2], over 10000 nM.
As to `CCCCCC(=O)N[C@H]1CSCc2cccc(c2)CSC[C@@H](CNC(C)=O)NC(=O)[C@H](Cc2ccccc2)NC(=O)[C@H](CCC(N)=O)NC(=O)[C@H]([C@@H](C)O)NC(=O)[C@@H]2CCCN2C(=O)[C@@H]2CCCN2C1=O` [Compound 5, Hex-Cys-Pro-Pro-Thr-Gln-Phe-Cys-CH2NHAc (Cys bridge DBMB) trifluoroacetate] (Hexanoyl-CPPTQF; linker 1-C via X4), the IC50 in test [1] is 1.8 nM; in test [2], over 10000 nM.
Regarding `CCCCCC(=O)N[C@H]1CSCc2cccc(c2F)CSC[C@@H](C(=O)O)NC(=O)[C@H](Cc2ccccc2)NC(=O)[C@H](CCC(N)=O)NC(=O)[C@H]([C@@H](C)O)NC(=O)[C@@H]2CCCN2C(=O)[C@@H]2CCCN2C1=O` [Compound 6, Hex-Cys-Pro-Pro-Thr-Gln-Phe-Cys-OH (Cys bridge 2,6-bis(bromomethyl)fluorobenzene) trifluoroacetate], the IC50 in test [1] (setting [3]) is 7.25 nM; in test [2], over 10000 nM.
Regarding `CCCCCC(=O)N[C@H]1CSCc2nc(CSCCNC(=O)CN3CCN(CC(=O)O)CCN(CC(=O)O)CCN(CC(=O)O)CC3)nc(n2)CSC[C@@H](C(=O)O)NC(=O)[C@H](Cc2ccccc2)NC(=O)[C@H](CCC(N)=O)NC(=O)[C@H]([C@@H](C)O)NC(=O)[C@@H]2CCCN2C(=O)[C@@H]2CCCN2C1=O` [Compound 7, Hex-Cys-Pro-Pro-Thr-Gln-Phe-Cys-OH (Cys bridge 2,4,6-tribromomethyl-1,3,5-triazine (DOTA-AET)) trifluoroacetate], the half-maximal inhibitory concentration (IC50) was 1.53 nM in test [1] (setting [3]) and over 10000 nM in test [2].
For `CCCCCC(=O)N[C@H]1CSCc2cc(CSCCNC(=O)CN3CCN(CC(=O)O)CCN(CC(=O)O)CCN(CC(=O)O)CC3)cc(c2)CSC[C@@H](CC(=O)O)NC(=O)[C@H](Cc2ccccc2)NC(=O)[C@H](CCC(N)=O)NC(=O)[C@H]([C@@H](C)O)NC(=O)[C@@H]2CCCN2C(=O)[C@@H]2CCCN2C1=O` [Compound 8, Hex-Cys-Pro-Pro-Thr-Gln-Phe-beta-HomoCys (Cys bridge TBMB (DOTA-AET)) trifluoroacetate], the half-inhibitory concentration (IC50) in test [1] is 1.18 nM; in test [2], over 10000 nM.
For `CCCCCC(=O)N[C@H]1CSCc2cc(CSCCNC(=O)CN3CCN(CC(=O)O)CCN(CC(=O)O)CCN(CC(=O)O)CC3)cc(c2)CSC[C@@H](CNC(=O)CCc2ccc(C(F)(F)F)cc2)NC(=O)[C@H](Cc2cccc3ccccc23)NC(=O)[C@H](CCC(N)=O)NC(=O)[C@H]([C@@H](C)O)NC(=O)[C@@H]2CCCN2C(=O)[C@@H]2CCCN2C1=O` [Compound 19, Hex-Cys-Pro-Pro-Thr-Gln-1Nal-Cys-CH2NH-3-(4-trifluoromethylphenyl)propanoic acid (Cys bridge TBMB (DOTA-AET))], the 50% inhibitory concentration (IC50) in test [1] (setting [3]) is 0.98 nM; in test [2] it was over 10000 nM.
Turning to `CCCCCC(=O)N[C@H]1CSCc2cccc(c2)CSC[C@@H](CC(N)=O)NC(=O)[C@H](Cc2cccc3ccccc23)NC(=O)[C@H](CCC(N)=O)NC(=O)[C@H]([C@@H](C)O)NC(=O)[C@@H]2CCCN2C(=O)[C@@H]2CCCN2C1=O` [Compound 31] (Hexanoyl-CPPTQ[1Nal][β3hC]-NH2; linker 1-7 via mXylylene), the IC50 was 1.61 nM in test [1] (setting [3]) and over 10000 nM in test [2].
Regarding `CCCCCNC(=O)C[C@@H]1CSCc2cccc(c2)CSC[C@H](NC(=O)CCCCC)C(=O)N2CCC[C@H]2C(=O)N2CCC[C@H]2C(=O)N[C@@H]([C@@H](C)O)C(=O)N[C@@H](CCC(N)=O)C(=O)N[C@@H](Cc2cccc3ccccc23)C(=O)N1` [Compound 32] (Hexanoyl-CPPTQ[1Nal][β3hC]-NHPentyl; linker 1-7 via mXylylene), the IC50 is 3.35 nM in test [1] (setting [3]) and over 10000 nM in test [2].
On to `CCCCCC(=O)N[C@H]1CSCc2cccc(c2)CSC[C@@H](CC(=O)NCc2ccccc2)NC(=O)[C@H](Cc2cccc3ccccc23)NC(=O)[C@H](CCC(N)=O)NC(=O)[C@H]([C@@H](C)O)NC(=O)[C@@H]2CCCN2C(=O)[C@@H]2CCCN2C1=O` [Compound 33] (Hexanoyl-CPPTQ[1Nal][β3hC]-NHBn; linker 1-7 via mXylylene), for which the half-inhibitory concentration (IC50) in test [1] (setting [3]) is 2.9 nM; in test [2], over 10000 nM.
In the case of `CCCCCC(=O)N[C@H]1CSCc2cccc(c2)CSC[C@@H](CC(=O)NC2CCCC2)NC(=O)[C@H](Cc2cccc3ccccc23)NC(=O)[C@H](CCC(N)=O)NC(=O)[C@H]([C@@H](C)O)NC(=O)[C@@H]2CCCN2C(=O)[C@@H]2CCCN2C1=O` [Compound 34] (Hexanoyl-CPPTQ[1Nal][β3hC]-NHcPent; linker 1-7 via mXylylene), the results for the IC50 in test [1] (setting [3]) and in test [2] were 5.92 nM and over 10000 nM, respectively.
As to `CCCCCC(=O)N[C@H]1CSCc2cc(CSCCNC(=O)CN3CCN(CC(=O)O)CCN(CC(=O)O)CCN(CC(=O)O)CC3)cc(c2)CSC[C@@H](CC(=O)O)NC(=O)[C@@H](Cc2cccc3ccccc23)NC(=O)[C@H](CCC(N)=O)NC(=O)[C@H]([C@@H](C)O)NC(=O)[C@@H]2CCCN2C(=O)[C@@H]2CCCN2C1=O` [Compound 83, Hexanoyl-(Cys(tMeBn(DOTA-AET))-Pro-Pro-Thr-Gln-D-1Nal-betahomoCys)-OH] (Hexanoyl-CPPTQ[d1Nal][β3hC]-OH; linker 1-7 via TBMB(SCH2CH2NH-DOTA)), in test [1] (setting [3]), the IC50 was determined as 1040 nM.
On to `CCCCCC(=O)N[C@H]1CSCc2cc(CSCCNC(=O)CN3CCN(CC(=O)O)CCN(CC(=O)O)CCN(CC(=O)O)CC3)cc(c2)CSC[C@H](CC(=O)O)NC(=O)[C@H](Cc2cccc3ccccc23)NC(=O)[C@H](CCC(N)=O)NC(=O)[C@H]([C@@H](C)O)NC(=O)[C@@H]2CCCN2C(=O)[C@@H]2CCCN2C1=O` [Compound 84, Hexanoyl-(Cys(tMeBn(DOTA-AET))-Pro-Pro-Thr-Gln-1Nal-D-betahomoCys)-OH] (Hexanoyl-CPPTQ[1Nal][d(β3hC)]-OH; linker 1-7 via TBMB(SCH2CH2NH-DOTA)), for which, in test [1] (setting [3]), the IC50 was 6.7 nM. Besides, the “inhibitory activity against FAP protease activity” value in test [1] (in words) was “good inhibitory activity”.
